{"source": "paper PMC5343011", "about": "“Phenol-Soluble Modulin α Peptide Toxins from Aggressive Staphylococcus aureus Induce Rapid Formation of Neutrophil Extracellular Traps through a Reactive Oxygen Species-Independent Pathway” (Frontiers in Immunology, 2017)", "key": {"neutrophils [1]": {"tested_on": "neutrophils", "experiment": "Plasma membrane disruption by lactate dehydrogenase (LDH) release", "type": "cell-based, human", "details": "10 min, 37°C, relative to Triton X-100-treated samples, two independent experiments in triplicates", "procedure": "Neutrophils (2 × 10^6 cells/ml) were incubated with PSMα2 or hexadecyltrimethylammonium bromide (CTAB, Sigma) for 10 min at 37°C. LDH was measured in the supernatants with cytotoxicity detection kit (LDH, Roche) as described in Ref. ([25])."}, "neutrophils [2]": {"tested_on": "neutrophils", "experiment": "Sytox Green DNA release / NET formation", "type": "cell-based, human", "procedure": "Peripheral blood neutrophils were isolated from 1-day-old buffy coats from healthy blood donors or from peripheral blood from patients and healthy controls. Neutrophil separation was performed as first described by Boyum ([23]). Briefly, after dextran, sedimentation at 1 × g the suspension was centrifuged on Ficoll-Paque, and the remaining erythrocytes were lysed by hypotonic treatment. The neutrophils were then washed in Krebs Ringer phosphate buffer (KRG) and finally resuspended in KRG supplemented with Ca^2+ (1 mM) and kept on melting ice until used. Buffy coats were obtained from the Sahlgrenska University Hospital blood bank after deidentification, and according to the Swedish legislation section code 4§ 3 p SFS2003:460, no informed consent is needed. Peripheral blood from one MPO-deficient individual, one patient with Papillon-Lefèvre syndrome, and healthy controls were obtained after written informed consent, and the study was approved by the Regional Ethical Review Board in Gothenburg, Sweden.\nCells (5 × 10^4 cells/well) in RPMI (without phenol red) and the Sytox Green DNA stain (1.25 μM; Molecular Probes) were added to black 96-well plates and incubated at 37°C and 5% CO2 ([5]). Inhibitors, PBP10 (CASLO Laboratory) or diphenyleneiodonium chloride (DPI; Sigma-Aldrich), were preincubated with cells for 10 min at 37°C and 5% CO2 prior to stimulation. Sytox Green fluorescence was measured at indicated time points at 485/535 nm in a Mithras LB940 (Berthold Technologies) or in a CLARIOstar plate reader (BMG Labtech)."}, "neutrophils [3]": {"tested_on": "neutrophils", "details": "cited from earlier work", "from_the_text": "Further, we have shown that enzymatic conversion of ROS by MPO inside granules is a prerequisite for PMA-induced NET formation ([10]). We thus investigated whether MPO was required for PSMα-induced NET formation by using neutrophils from a completely MPO-deficient donor [previously described in Ref. ([10])] that was sampled at two occasions (with nearly identical results). Neutrophils fro ..."}, "neutrophils [4]": {"tested_on": "neutrophils", "experiment": "Nuclear membrane integrity (SUN2 staining, confocal microscopy)", "type": "cell-based, human", "details": "SUN2 and DNA staining, three independent experiments", "procedure": "Neutrophils or human A375 melanoma cells (2.5 × 10^5 cells/well) were suspended in RPMI and added to poly-lysine-coated coverslips. After stimulation with PMA (50 nM; Sigma-Aldrich) or PSMα (indicated concentrations), the cells were incubated at 37°C in the presence of 5% CO2 or at 4°C for indicated time. To visualize NETs, samples were fixed in 4% paraformaldehyde for 30 min at room temperature and stained with antibodies against MPO (DAKO), NE (Calbiochem), or Histone-1 (Acris) followed by secondary antibody staining. Finally, the coverslips were incubated with DAPI (1 μg/ml) for 5 min and then mounted in ProLong Gold antifade (Molecular Probes). For nuclear morphology experiments, neutrophils were incubated with PSMα2 for 10 min or with PMA for 30 min or 2 h, the cells were fixed on ice with 4% paraformaldehyde, permeabilized with cold acetone and methanol (1:1) for 5 min, and stained with SUN2 antibody (Abcam) followed by secondary antibody staining. To visualize microbes in the NETs, we used green fluorescent protein (GFP)-expressing Candida albicans, strain CAI4 containing a C. albicans-specific pENO1-GFP-CyC1t plasmid ([26]), or S. aureus, strain RN4220 containing the pCN-GFP plasmid that was a kind gift from Dr. Maria Lerm (Linköping University, Sweden). […]"}, "A375 melanoma cells": {"tested_on": "A375 melanoma cells", "experiment": "Microscopic visualization of melanoma cells (DAPI)", "type": "cell-based, human", "details": "PSMα2 or PSMα3 2.5 μM for 1 h, PMA 50 nM for 3 h, three independent experiments", "procedure": "The human melanoma cell line A375 was a kind gift from Professor Jonas A. Nilsson (Sahlgrenska Cancer Center, University of Gothenburg, Sweden). The cells were cultured in DMEM with 10% FCS, 100 U/ml penicillin, and 100 μg/ml streptomycin at 37°C and 5% CO2. Before being used experimentally, the cells were detached from the flasks’ surface by incubation with 0.25% trypsin in 37°C for 10 min followed by washing and resuspension in RPMI culture media.\nNeutrophils or human A375 melanoma cells (2.5 × 10^5 cells/well) were suspended in RPMI and added to poly-lysine-coated coverslips. After stimulation with PMA (50 nM; Sigma-Aldrich) or PSMα (indicated concentrations), the cells were incubated at 37°C in the presence of 5% CO2 or at 4°C for indicated time. To visualize NETs, samples were fixed in 4% paraformaldehyde for 30 min at room temperature and stained with antibodies against MPO (DAKO), NE (Calbiochem), or Histone-1 (Acris) followed by secondary antibody staining. Finally, the coverslips were incubated with DAPI (1 μg/ml) for 5 min and then mounted in ProLong Gold antifade (Molecular Probes). […]"}, "[5]": {"tested_on": "Formyl peptide receptor (FPR) 1 / FPR2", "details": "receptor through which the peptide activates neutrophils; dash = inactive; cited from earlier work", "from_the_text": "Table 1 Peptide sequences and receptor preferences of PSMα2. | column: Receptor preference^a"}}, "data": [{"compound": "CCCCCCCCCCCCCCCC[N+](C)(C)C", "note": "[CTAB, hexadecyltrimethylammonium bromide]", "values": [{"measurement": "LDH release", "setting": "neutrophils [1]", "value": "close to maximal"}, {"measurement": "NET formation (Sytox Green fluorescence) after detergent treatment", "setting": "neutrophils [2]; 10 min, two independent experiments in triplicates", "value": "did not cause NET formation"}]}, {"compound": "c1ccc2c(c1)[I+]c1ccccc1-2", "note": "[DPI, diphenyleneiodonium chloride]", "values": [{"measurement": "Effect of NADPH oxidase inhibitor on PMA-induced NET formation", "setting": "neutrophils [2]; PMA 50 nM, DPI 10 μM, three independent experiments", "value": "potently inhibited"}, {"measurement": "Effect of NADPH oxidase inhibitor on PSMα-induced NETs", "setting": "neutrophils [2]; PSMα2 2.5 μM, DPI 10 μM, three independent experiments", "value": "without effect"}]}, {"compound": "CCCCCCCCCCCCCC(=O)O[C@@H]1[C@@H](C)[C@@]2(O)[C@@H](C=C(CO)C[C@]3(O)C(=O)C(C)=C[C@@H]23)[C@@H]2C(C)(C)[C@]12OC(C)=O", "note": "[PMA, phorbol myristate acetate]", "values": [{"measurement": "NET formation by neutrophils from a completely MPO-deficient donor in response to PMA", "setting": "neutrophils [3]", "value": "unable to form NETs"}, {"measurement": "Stimulation time at which disruption of nuclear membranes was first observed", "setting": "neutrophils [4]", "value": 2, "unit": "h"}, {"measurement": "Extracellular DNA release from melanoma cells", "setting": "A375 melanoma cells", "value": "did not induce any DNA expulsion"}, {"measurement": "Time to increase in Sytox green fluorescence", "setting": "neutrophils [2]; PMA 50 nM, 37°C, three independent experiments", "value": 3, "unit": "h"}]}, {"compound": "f-MGIIA [1–5, shorter PSMα2 variant, amino acids 1–5]", "values": [{"measurement": "Receptor preference", "setting": "[5]", "value": "Formyl peptide receptor (FPR) 1"}]}, {"compound": "f-MGIIAGIIKF [1–10, shorter PSMα2 variant, amino acids 1–10]", "values": [{"measurement": "Receptor preference", "setting": "[5]", "value": "FPR1"}]}, {"compound": "f-MGIIAGIIKFIK [1–12, shorter PSMα2 variant, amino acids 1–12]", "values": [{"measurement": "Receptor preference", "setting": "[5]", "value": "FPR1/FPR2"}]}, {"compound": "f-MGIIAGIIKFIKGLIE [1–16, shorter PSMα2 variant, amino acids 1–16]", "values": [{"measurement": "Receptor preference", "setting": "[5]", "value": "FPR2"}]}]}
